Results: patent publication US20130261066A1, “TREATMENT OF INFLAMMATORY BOWEL DISEASES USING A TRIPEPTIDE” (THE RESEARCH FOUNDATION OF STATE UNIVERSITY OF NEW YORK, priority 2010, published 2013)

What follows are substances tested on NF-kB (assay: Inhibition of NF-kB by D-amino-acid and cyclized peptides).
Source text: The following acetylated peptides, composed of D amino acids, were synthesized and tested for inhibition of NF-kB: 1) Ac-dGln-dALa-dTrp (SEQ ID NO:9); and 2) Ac-dPhe-dLeu-dLys-dGln-dALa-dTrp (SEQ ID NO:10). […] The following acetylated peptide, cyclized through its N- and C-terminals, was synthesized and tested for inhibition of NF-kB: Ac-Phe-Leu-Lys-Gln-Ala-Trp (SEQ ID NO:6).
With “Ac-Phe-Leu-Lys-Gln-Ala-Trp (Ac-cyclo(FLKQAW))” the “inhibition of NF-kB” value was “effective inhibition of NF-kB”.
For Ac-dGln-dALa-dTrp, the “inhibition of NF-kB” value was “effective inhibition of NF-kB”.
In the case of Ac-dPhe-dLeu-dLys-dGln-dALa-dTrp, the “inhibition of NF-kB” value is reported as “effective inhibition of NF-kB”.
